Laboratory results published in ChEMBL document CHEMBL5055663, “Histamine H3 receptor antagonists with peptidomimetic (keto)piperazine structures to inhibit Aβ oligomerisation” (Bioorg Med Chem, 2021).
Calls of active or inactive are those of the source. The calls are words filed in the database; no cut-off is given here.

Legend:
Histamine H3 receptor [1] = biological target: T1, Histamine H3 receptor (Homo sapiens, UniProt Q9Y5N1); assay: Displacement of [3H]Nalpha-methylhistamine from recombinant human histamine H3 receptor expressed in HEK293 cells incubated for 90 mins by competition binding assay; assay type: cell-based
[2] = biological target: T2, Amyloid-beta precursor protein (Homo sapiens, UniProt P05067); assay: Binding affinity to CM-5 sensor chip immobilized beta-amyloid monomer (1 to 42) (unknown origin) at 200 uM by SPR analysis
[3] = biological target: T2, Amyloid-beta precursor protein; assay: Binding affinity to CM-5 sensor chip immobilized beta-amyloid monomer (1 to 42) (unknown origin) assessed as dissociation constant by SPR analysis
Histamine H3 receptor [4] = biological target: T1, Histamine H3 receptor; assay: Antagonist activity at histamine H3 receptor (unknown origin)

T1 sequence (Q9Y5N1 whole entry): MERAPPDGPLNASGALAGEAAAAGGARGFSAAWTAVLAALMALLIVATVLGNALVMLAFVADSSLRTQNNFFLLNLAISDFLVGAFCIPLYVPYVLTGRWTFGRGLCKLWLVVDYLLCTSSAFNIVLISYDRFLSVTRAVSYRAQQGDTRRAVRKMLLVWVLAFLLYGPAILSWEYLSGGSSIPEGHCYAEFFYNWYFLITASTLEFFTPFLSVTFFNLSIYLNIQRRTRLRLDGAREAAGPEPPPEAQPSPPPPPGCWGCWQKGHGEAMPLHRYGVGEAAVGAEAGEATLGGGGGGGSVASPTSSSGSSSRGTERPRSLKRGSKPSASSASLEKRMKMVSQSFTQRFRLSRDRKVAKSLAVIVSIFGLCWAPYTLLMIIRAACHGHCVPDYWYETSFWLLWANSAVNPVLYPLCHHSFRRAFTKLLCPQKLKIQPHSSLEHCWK
T2 sequence (P05067 whole entry): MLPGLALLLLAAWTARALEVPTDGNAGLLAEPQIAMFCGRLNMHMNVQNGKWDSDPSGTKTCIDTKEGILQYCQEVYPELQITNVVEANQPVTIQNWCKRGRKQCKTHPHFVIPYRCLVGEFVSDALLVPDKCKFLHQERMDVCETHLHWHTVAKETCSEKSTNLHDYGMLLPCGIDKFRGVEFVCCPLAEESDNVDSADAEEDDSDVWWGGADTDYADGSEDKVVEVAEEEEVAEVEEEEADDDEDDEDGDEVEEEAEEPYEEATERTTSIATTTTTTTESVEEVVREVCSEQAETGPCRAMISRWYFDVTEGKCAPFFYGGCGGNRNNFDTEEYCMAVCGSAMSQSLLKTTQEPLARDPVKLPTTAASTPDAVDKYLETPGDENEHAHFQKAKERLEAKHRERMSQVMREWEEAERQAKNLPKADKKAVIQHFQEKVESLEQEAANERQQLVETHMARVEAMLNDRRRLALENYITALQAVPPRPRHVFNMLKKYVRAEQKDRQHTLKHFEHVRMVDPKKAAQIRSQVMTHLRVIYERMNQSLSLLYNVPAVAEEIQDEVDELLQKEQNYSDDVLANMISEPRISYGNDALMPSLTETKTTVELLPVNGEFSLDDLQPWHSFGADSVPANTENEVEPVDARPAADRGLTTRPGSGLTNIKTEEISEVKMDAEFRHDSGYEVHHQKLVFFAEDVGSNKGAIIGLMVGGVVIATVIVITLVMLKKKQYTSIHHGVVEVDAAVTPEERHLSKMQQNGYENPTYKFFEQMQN

| SMILES | Ki (Histamine H3 receptor [1]) | Activity [2] | Kd [3] | Ki (Histamine H3 receptor [4]) |
| --- | --- | --- | --- | --- |
| O=C1N[C@@H](Cc2ccc(OCCCN3CCCCC3)cc2)C(=O)N[C@H]1Cc1ccccc1 | 0.039 µM | inactive | 12000 µM | – |
| C[C@@H]1NC(=O)[C@H](Cc2ccc(OCCCN3CCCCC3)cc2)NC1=O | 0.159 µM | inactive | – | – |
| O=C1CNC(=O)[C@@H](Cc2ccc(OCCCN3CCCCC3)cc2)N1 | 0.158 µM | inactive | – | – |
| CN1C[C@H]2CCN(c3ccc(-c4ccc(-n5ncccc5=O)cc4)cc3)[C@H]2C1 | – | – | – | 0.002 µM |
| O=C1CNC(=O)/C(=C/c2ccc(OCCCN3CCCCC3)cc2)N1 | 0.0223 µM | inactive | – | – |
| O=C1CNC(=O)[C@H](Cc2ccc(OCCCN3CCCCC3)cc2)N1 | 0.074 µM | inactive | – | – |
| O=C1CN(Cc2ccc(OCCCN3CCCCC3)cc2)CCN1Cc1ccccc1 | 0.0113 µM | – | 51.6 µM | – |
| CC(C)[C@@H]1NC(=O)[C@H](Cc2ccc(OCCCN3CCCCC3)cc2)NC1=O | 0.219 µM | inactive | – | – |

Continued by falling Ki (Histamine H3 receptor [1]), values first:

| Ki (Histamine H3 receptor [1]) | Activity [2] | Kd [3] | Ki (Histamine H3 receptor [4]) | SMILES |
| --- | --- | --- | --- | --- |
| 0.0049 µM | – | 1550 µM | – | O=C1CN(Cc2ccc(OCCCN3CCCCC3)cc2)C(=O)CN1 |
| 0.0049 µM | – | – | – | O=C1CN(C(=O)c2ccc(OCCCN3CCCCC3)cc2)CCN1Cc1ccccc1 |
| 0.0044 µM | inactive | – | – | CC(=O)N1C(=O)/C(=C/c2ccc(OCCCN3CCCCC3)cc2)NC(=O)[C@@H]1Cc1ccccc1 |
| 0.0038 µM | inactive | – | – | CC(=O)N1CC(=O)N/C(=C\c2ccc(OCCCN3CCCCC3)cc2)C1=O |
| 0.0038 µM | inactive | – | – | O=c1[nH]/c(=C\c2ccc(OCCCN3CCCCC3)cc2)c(=O)[nH]/c1=C\c1ccccc1 |
| 0.0028 µM | – | – | – | O=C1CN(C(=O)c2ccc(OCCCN3CCCCC3)cc2)CCN1 |
| 0.002 µM | inactive | – | – | O=C1N[C@@H](Cc2ccccc2)C(=O)N/C1=C\c1ccc(OCCCN2CCCCC2)cc1 (stereo in doubt) |
| 0.002 µM | inactive | – | – | c1cc(OCCCN2CCCCC2)ccc1C[C@H]1CNCCN1 |
| 0.0011 µM | inactive | – | – | c1ccc(C[C@H]2CN[C@@H](Cc3ccc(OCCCN4CCCCC4)cc3)CN2)cc1 |
